From patent US20190083420A1, “METHODS OF USING (2R, 6R)-HYDROXYN[…] (2S, 6S)-HYDROXYN[…] THE TREATMENT OF DEPRESSION, ANXIETY, ANHEDONIA, FATIGUE, SUICIDAL IDEATION, AND POST TRAUMATIC STRESS DISORDERS” (The Uinited States of America, as represented by the …, priority 2016, published 2019) come the findings set out here.

Entries after “also recorded” stand apart in the source; their conditions may differ.

Data set [1] is described as follows: Tissue distribution of ketamine and metabolites (plasma and brain levels). As to conditions: brain. As to the method:
Mice were euthanized by a 30-sec exposure to 3% isoflurane and decapitated at 10, 30, 60, 240 or 480 minutes following drug administration. Trunk blood was collected in EDTA-containing tubes and centrifuged at 8000 rpm for 6 min (4° C.). Plasma was collected and stored at −80° C. until analysis. Whole brains were simultaneously collected, rinsed with phosphate-buffered saline, immediately frozen in dry ice and stored at −80° C. until analysis.
The concentrations of ketamine and its metabolites in plasma and brain tissue were determined by achiral liquid chromatography-tandem mass spectrometry. For plasma samples, the calibration standards for (R,S)-ketamine, (R,S)-norketamine, (2R,6R;2S,6S)-HNK and (R,S)-DHNK ranged from 10,000 ng/ml to 19 ng/ml. The quantification of (R,S)-ketamine, (R,S)-norketamine, (R,S)-DHNK, and the HNK stereoisomers was accomplished by calculating area ratios using D4-ketamine (10 μl of 10 μg/ml solution) as the internal standard. Whole brains were suspended in 990 μl of water:methanol (3:2, v/v), D4-ketamine (10 μl of 10 μg/ml) added and the resulting mixture homogenized on ice with a polytron homogenizer and centrifuged at 21,000×g for 30 min. The supernatant was collected and processed using 1 ml Oasis HLB solid phase extraction cartridges (Waters Corp., Waltham, Mass.). The cartridges were preconditioned with 1 ml of methanol, followed by 1 ml of water and then 1 ml ammonium acetate [10 mM, pH 9.5]. The supernatants were added to the cartridges, followed by 1 ml of water and the compounds were eluted with 1 ml of methanol. The eluent was transferred to an autosampler vial for analysis. QC standards for the analysis of (R,S)-ketamine, (R,S)-norketamine, (R,S)-DHNK and (2R,6R;2S,6S)-HNK ranged from 10,000 ng/ml to 19 ng/ml, and quantification was accomplished using D4-(R,S)-ketamine as the internal standard. QC standards were prepared daily by adding 10 μl of the appropriate standard solution and 10 μl of internal standard solution (100 ng/ml) to methanol.

The subject of a further data set is mTOR. Put plainly: Western blot of synaptoneurosomes, mTOR and phosphorylated mTOR. In kind it is in vivo, mice. As for the experimental part: (§1) To purify synaptoneurosomes, mouse prefrontal cortex or hippocampus were dissected and homogenized in Syn-PER Reagent (ThermoFisher Scientific, Waltham, Mass., USA; Cat #87793) with 1× protease and phosphatase inhibitor cocktail (ThermoFisher Scientific, Waltham, Mass., USA; Cat #78440). The homogenate was centrifuged for 10 min at 1,200×g at 4° C. The supernatant was centrifuged at 15,000×g for 20 min. After centrifugation, the supernatant the pellet (synaptosomal fraction) was re-suspended and sonicated in N-PER Neuronal Protein Extraction Reagent (ThermoFisher Scientific, Waltham, Mass., USA; Cat #87792). For total homogenous tissue lysates, mouse prefrontal cortex or hippocampus were homogenized and sonicated in N-PER Neuronal Protein Extraction Reagent with 1× protease & phosphatase inhibitor cocktail) Protein concentration was determined via the BCA protein assay kit (ThermoFisher Scientific, Waltham, Mass., USA; Cat #23227).
(§2) For western blotting, equal amount of proteins (10-40 μg as optimal for each antibody) for each sample were loaded into NuPage 4-12% Bis-Tris gel for electrophoresis. Nitrocellulose membranes with transferred proteins were blocked with 5% milk in TBST (TBS+0.1% Tween-20) for 1 hour and kept with primary antibodies overnight at 4° C. The following primary antibodies were used: phospho-eEF2 (Cell Signaling Technology, Danvers, Mass., USA; Cat #2331), total eEF2 (Cell Signaling Technology, Danvers, Mass., USA; Cat #2332), phospho-mTOR (Cell Signaling Technology, Danvers, Mass., USA; Cat #2971), total mTOR (Cell Signaling Technology, Danvers, Mass., USA; Cat #2983), GluR1 (Cell Signaling Technology, Danvers, Mass., USA; […]), GluR2 (Cell Signaling Technology, Danvers, Mass., USA; Cat #13607), BDNF (Santa Cruz Biotechnology, Dallas, Tex., USA; Cat # sc-546), and GAPDH (Abcam, Cambridge, Mass., USA; Cat # ab8245). The next day, blots were washed three times in PBST and incubated with horseradish peroxidase conjugated anti-mouse or anti-rabbit secondary antibody (1:5000 to 1:10000) for 1 hour. After final three washes with TBST, bands were detected using enhanced chemiluminescence (ECL) with the Syngene Imaging System (G:Box ChemiXX9). After imaging, the blots then were incubated in the stripping buffer (ThermoFisher Scientific, Waltham, Mass., USA; Cat #46430) for 10-15 min at room temperature followed by three time washes with TBST. The stripped blots were washed in blocking solution for 1 hour and incubated with the primary antibody directed against total levels of the respective protein or GAPDH for loading control. Densitometric analysis of phospho- and total immunoreactive bands for each protein was conducted using Syngene's GenTools software Immunoreactivity was normalized to the saline treated control group for each protein.
For orientation: A western blot detects proteins with antibodies after separation by electrophoresis.

The subject of a further data set is BDNF. Put plainly: Western blot of synaptoneurosomes, BDNF levels. The class given is in vivo, mice. The note with it: for mBDNF levels: hippocampus, 24 hours post-administration, 10 mg/kg; for proBDNF / mBDNF levels: prefrontal cortex. As to the method:
as §1, §2

The test system of another data set is eEF2. The data set is described as follows: Western blot of synaptoneurosomes, eEF2 phosphorylation. In kind it is in vivo, mice. The note with it: for phosphorylation of eEF2: hippocampus, 1 hour and 24 hours post-injection, 10 mg/kg; for eEF2 / phosphorylated eEF2: prefrontal cortex. As to the method: as §1, §2
Setting [2] is: hippocampus, 1- or 24-hours post-injection, 10 mg/kg.
[3] abbreviates: listed as (2R,6R)-hydroxynorketamine.

On to `CNC1(c2ccccc2Cl)CCCCC1=O` (racemic) [ketamine, (R,S)-ketamine, reference compound], for which the “brain levels following ketamine administration, female mice compared to males” value in data set [1] is listed as “equivalent levels”. Also, the “mTOR / phosphorylated mTOR synaptoneurosome levels” value in the data set with mTOR (setting [2]) is on record as “not observed”; with mTOR (hippocampus, 1- or 24-hours post-injection, 10 mg/kg, listed as (R,S)-ketamine) it was “did not alter synaptoneurosome levels of mTOR or phosphorylated mTOR”; with mTOR (prefrontal cortex), “not observed”; in the data set with mTOR (prefrontal cortex, listed as (R,S)-KET) it was “did not alter”. In addition, the mBDNF levels result is “increased hippocampal BDNF” with BDNF and “increased mBDNF levels” in the data set on BDNF (listed as (R,S)-ketamine). In addition, the “proBDNF / mBDNF levels” value with BDNF was “did not alter”. Also, the “phosphorylation of eEF2” value was “induced a decrease in eEF2 phosphorylation” in the data set with eEF2 and “decrease phosphorylation of eEF2” with eEF2 (listed as (R,S)-ketamine). Also, the “eEF2 / phosphorylated eEF2” value in the data set on eEF2 (listed as (R,S)-KET) is “did not alter”.
As for `N[C@@]1(c2ccccc2Cl)CCC[C@@H](O)C1=O` [(2R,6R)-HNK, (2R,6R)-2-amino-2-(2-chlorophenyl)-6-hydroxycyclohexanone], the “brain hydroxynorketamine levels after administration of (2S,6S)-HNK versus (2R,6R)-HNK” value in data set [1] was “do not result from higher brain levels”. Besides, the “mTOR / phosphorylated mTOR synaptoneurosome levels” value is given as “not observed” in the data set on mTOR (setting [2]); “did not alter synaptoneurosome levels of mTOR or phosphorylated mTOR” in the data set with mTOR (hippocampus, 1- or 24-hours post-injection, 10 mg/kg, listed as (2R,6R)-hydroxynorketamine); “not observed; also recorded: did not alter” with mTOR (prefrontal cortex). For the same compound, the mBDNF levels result in the data set on BDNF (setting [3]) is “increased mBDNF levels”. Further, in the data set with BDNF, the “proBDNF / mBDNF levels” value is “did not alter”. In addition, the “phosphorylation of eEF2” value in the data set on eEF2 (setting [3]) is reported as “decrease phosphorylation of eEF2”. For the same compound, the “eEF2 / phosphorylated eEF2” value in the data set on eEF2 is given as “did not alter”.
